Earlier results in US12504433B2, “Methods, systems and kits for in-pen assays” (BRUKER CELLULAR ANALYSIS, INC., priority 2020, dated 2025).

Assays:
[1] = test system: Fc of hIgG; details: read-out: Affinity for IgG
[2] = molecular target: IgG

Substance: 5′-rGp-rGp-rAp-rGp-rGp-fUp-fCp-fCp-rGp-rAp-rAp-rAp-rGp-rGp-rAp-fCp-fUp-fCp-fCp-3′ [CPD 5]
- Kd [1]: 75 nM

Substance: CPD 1: Protein A-AF594, Pierce Recombinant Protein A (ThermoFisher Cat. # 77674)
- Affinity for IgG ([2]; stated in words): nanomolar

Substance: DCAWHLGELVWCT [CPD 4, Asp Cys Ala Trp His Leu Gly Glu Leu Val Trp Cys Thr]
- Kd ([2]; Fc, read-out: Affinity for IgG): 100 nM
